Calls of active or inactive are those of the source. How the calls were made is not given here.
Tested on: HeLa cell cycle, increased S-phase population
Assay: HeLa S-phase population increase, dose response, cell-based, IC50 (AID 1117348)

SMILES	IC50
Cc1cc2c(C(C)C)c(O)c(O)c(C=O)c2c(O)c1-c1c(C)cc2c(C(C)C)c(O)c(O)c(C=O)c2c1O	> 10 µM (inactive)
CC(C)(C)C1CCC(CC2=C(O)c3ccccc3C(=O)C2=O)CC1 (stereo not given)	> 10 µM (inactive)
CC[C@@]1(O)C(=O)OCc2c1cc1n(c2=O)Cc2cc3c(CN(C)C)c(O)ccc3nc2-1	0.082 µM
O=C1c2c(O)ccc(O)c2C(=O)c2c(NCCNCCO)ccc(NCCNCCO)c21	> 10 µM (inactive)
CCN1/C(=C/C=C/c2sc3ccccc3[n+]2CC)Sc2ccccc21	> 10 µM (inactive)
CCCCCCCCCCCCCCCC[N+](C)(C)Cc1ccccc1	> 10 µM (inactive)
O=C(O)CCc1nc2ccccc2[nH]1	> 10 µM (inactive)
OC[C@H]1O[C@@H](n2cnc3c(=S)nc[nH]c32)[C@H](O)[C@@H]1O	> 10 µM (inactive)
N[C@@H](Cc1ccc(N(CCCl)CCCl)cc1)C(=O)O	> 10 µM (inactive)
CO[C@@]12[C@H](COC(N)=O)C3=C(C(=O)C(C)=C(N)C3=O)N1C[C@@H]1N[C@@H]12	0.143 µM
CCN(CCCCOC(=O)c1ccc(OC)c(OC)c1)C(C)Cc1ccc(OC)cc1 (stereo not given)	> 10 µM (inactive)
O=[N+]([O-])c1ccc(Oc2ccc(N=C=S)cc2)cc1	> 10 µM (inactive)
COc1ccc(-c2nc3ccc(C4=NNC(=O)CC4C)cc3[nH]2)cc1 (stereo not given)	> 10 µM (inactive)
C[C@@H]1C[C@H]2[C@@H]3CCC4=CC(=O)C=C[C@]4(C)[C@@]3(Cl)[C@@H](O)C[C@]2(C)[C@@]1(OC(=O)c1ccco1)C(=O)CCl	> 10 µM (inactive)
Nc1nc(Cl)nc2c1ncn2[C@@H]1O[C@H](CO)[C@@H](O)[C@@H]1F	> 10 µM (inactive)
CC[n+]1c(-c2ccccc2)c2cc(N)ccc2c2ccc(N)cc21	> 10 µM (inactive)
CN(C)CCOC(c1ccccc1)c1ccc(Br)cc1 (stereo not given)	> 10 µM (inactive)
O=C(O)CCCc1ccc(N(CCCl)CCCl)cc1	2.19 µM

SMILES	IC50
C1CN(P2(N3CC3)=NP(N3CC3)(N3CC3)=NP(N3CC3)(N3CC3)=N2)CCO1 (stereo not given)	> 10 µM (inactive)
CCN(CC)CCOc1ccc(C(O)(Cc2ccc(Cl)cc2)c2ccc(C)cc2)cc1 (stereo not given)	> 10 µM (inactive)
CO[C@@H]1[C@@H](OC)[C@H](C)[C@@](O)(CC(=O)O)O[C@H]1[C@H](C)[C@H]1O[C@@]2(CC[C@@](C)([C@H]3CC[C@@](C)([C@@H]4O[C@@H]([C@H]5O[C@](C)(O)[C@H](C)C[C@@H]5C)C[C@@H]4OC4C[C@H](OC)[C@@H](OC)[C@H](C)O4)O3)O2)C[C@H](O)[C@H]1C (stereo not given in full)	> 10 µM (inactive)
Nc1nc(=S)c2[nH]cnc2[nH]1	> 10 µM (inactive)
CCCCCCCCCCOCC(O)CN (stereo not given)	> 10 µM (inactive)
CCN(CC)CCCC(C)Nc1c2ccc(Cl)cc2nc2ccc(OC)cc12 (stereo not given)	2.26 µM
COC(=O)Nc1nc2ccc(C(=O)C3CC3)cc2[nH]1	> 10 µM (inactive)
Cc1cc(N)c2ccccc2[n+]1CCCCCCCCCC[n+]1c(C)cc(N)c2ccccc21	> 10 µM (inactive)
CCOc1ccc2nc3cc(N)ccc3c(N)c2c1	> 10 µM (inactive)
CC(C)n1c(/C=C/[C@@H](O)C[C@@H](O)CC(=O)O)c(-c2ccc(F)cc2)c2ccccc21	> 10 µM (inactive)
O=c1[nH]cc(F)c(=O)[nH]1	> 10 µM (inactive)
COc1cc2c(c(OC)c1OC)-c1ccc(OC)c(=O)cc1[C@@H](NC(C)=O)CC2	0.1 µM (inactive)
CC(C)=CCNc1ncnc2c1ncn2[C@@H]1O[C@H](CO)[C@@H](O)[C@H]1O	> 10 µM (inactive)
Oc1ccc([C@H]2CNCc3c2ccc(O)c3O)cc1O	> 10 µM (inactive)
CC[C@]1(O)C[C@@H]2CN(CCc3c([nH]c4ccccc34)[C@@](C(=O)OC)(c3cc4c(cc3OC)N(C)[C@H]3[C@@](O)(C(=O)OC)[C@H](OC(C)=O)[C@]5(CC)C=CCN6CC[C@]43[C@@H]65)C2)C1	> 10 µM (inactive)
Fc1ccc(C(OCCN2CCN(CCCc3ccccc3)CC2)c2ccc(F)cc2)cc1	> 10 µM (inactive)
COc1cccc2c1C(=O)c1c(O)c3c(c(O)c1C2=O)C[C@@](O)(C(=O)CO)C[C@@H]3O[C@H]1C[C@H](N)[C@H](O[C@@H]2CCCCO2)[C@H](C)O1	1.75 µM

— PubChem BioAssay AID1117348 (Cheminformatics & Chemogenomics Research Group (CCRG), …, 2015)
